According to patent US20100267561A1, “HERBICIDAL PYRIDAZINONE DERIVATIVES” (priority 2007, published 2010):

What was measured:
Type in all cases: in vivo
[1] = system: spring barley (Hordeum vulgare); experiment: Test C pre-/postemergence plant response
In short: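 Pre- and postemergence treatment, visual 0–100 rating vs controls at 15–25 days.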

[2] = system: barnyardgrass (Echinochloa crus-galli); experiment: Test E pre-/postemergence plant response
From the text: (§1) Seeds of plant species selected from bermudagrass (Cynodon dactylon), Surinam grass (Brachiaria decumbens), large crabgrass (Digitaria sanguinalis), green foxtail (Setaria viridis), goosegrass (Eleusine indica), johnsongrass (Sorghum halepense), kochia (Kochia scoparia), pitted morningglory (Ipomoea lacunosa), purple nutsedge (Cyperus rotundus), common ragweed (Ambrosia elation), black mustard (Brassica nigra), guineagrass (Panicum maximum), dallisgrass (Paspalum dilatatum), barnyardgrass (Echinochloa crus-galli), southern (S.) sandbur (Cenchrus echinatus), common sowthistle (Sonchus oleraceous), prickly sida (Sida spinosa), Italian ryegrass (Lolium multiflorum), common purslane (Portulaca oleracea), broadleaf signalgrass (Brachiaria platyphylla), common groundsel (Senecio vulgaris), common chickweed (Stellaria media), Virginia (V.) dayflower (Commelina virginica), tropical (T.) spiderwort (Commelina benghalensis), annual bluegrass (Poa annua), naked crabgrass (Digitaria nuda), itchgrass (Rottboellia cochinchinensis), quackgrass (Elytrigia repens), Canada horseweed (Conyza canadensis), field bindweed (Convolvulus arvensis), spanishneedles (Bidens bipinnata), common mallow (Malva sylvestris) and Russian thistle (Salsola kali) were planted and treated preemergence with test chemicals formulated in a non-phytotoxic solvent mixture which included a surfactant. At the same time, plants selected from these weed species were treated with postemergence applications of some of the test chemicals formulated in the same manner. Plants ranged in height from 2 to 18 cm (1- to 4-leaf stage) for postemergence treatments.
(§2) Treated plants and controls were maintained in a greenhouse for 14 to 21 days, after which time all species were compared to controls and visually evaluated. Plant response ratings, summarized in Table E, are based on a scale of 0 to 100 where 0 is no effect and 100 is complete control. A dash (-) response means no test result.

[3] = system: bermudagrass (Cynodon dactylon); experiment: Test E pre-/postemergence plant response; conditions: scale 0 to 100
From the text: as §1, §2

[4] = system: common mallow (Malva sylvestris); experiment: Test E pre-/postemergence plant response; conditions: scale 0 to 100
From the text: as §1, §2

[5] = system: common purslane (Portulaca oleracea); experiment: Test E pre-/postemergence plant response; conditions: scale 0 to 100
From the text: as §1, §2

[6] = system: pitted morningglory (Ipomoea lacunosa); experiment: Test E pre-/postemergence plant response; conditions: scale 0 to 100
From the text: as §1, §2

[7] = system: quackgrass (Elytrigia repens); experiment: Test E pre-/postemergence plant response; conditions: scale 0 to 100
From the text: as §1, §2

[8] = system: southern (S.) sandbur (Cenchrus echinatus); experiment: Test E pre-/postemergence plant response; conditions: scale 0 to 100
From the text: as §1, §2

[9] = Preemergence, 8 g ai/ha, scale 0 to 100 (0 no effect, 100 complete control)
[10] = Preemergence, 16 g ai/ha, scale 0 to 100 (0 no effect, 100 complete control)
[11] = Preemergence, 31 g ai/ha, scale 0 to 100 (0 no effect, 100 complete control)
[12] = Preemergence, 62 g ai/ha, scale 0 to 100, 0 no effect, 100 complete control
[13] = 8 g ai/ha, Preemergence, scale 0 to 100
[14] = 16 g ai/ha, Preemergence, scale 0 to 100
[15] = 31 g ai/ha, Preemergence, scale 0 to 100
[16] = Postemergence, 8 g ai/ha, scale 0 to 100
[17] = Postemergence, 16 g ai/ha, scale 0 to 100
[18] = Postemergence, 31 g ai/ha, scale 0 to 100

Compound: COC(=O)Oc1cnn(C)c(=O)c1-n1nc(-c2ccc(Cl)cc2)cc1C [Compound 33]
- Plant response rating, Barley, Spring [1, 9]: 0
- Plant response rating, Barley, Spring [1, 10]: 0
- Plant response rating, Barley, Spring [1, 11]: 10
- Plant response rating, Barley, Spring [1, 12]: 25
- Plant response rating, Barnyardgrass [2, 13]: 65
- Plant response rating, Barnyardgrass [2, 14]: 80
- Plant response rating, Barnyardgrass [2, 15]: 100
- Plant response rating, Barnyardgrass ([2]; 62 g ai/ha, Preemergence, scale 0 to 100): 100
- Plant response rating, Barnyardgrass [2, 16]: 95
- Plant response rating, Barnyardgrass [2, 17]: 100
- Plant response rating, Barnyardgrass [2, 18]: 100
- Plant response rating, Barnyardgrass ([2]; Postemergence, 62 g ai/ha, scale 0 to 100): 100
- Plant response rating, Bermudagrass ([3]; 8 g ai/ha, Preemergence): 90
- Plant response rating, Bermudagrass ([3]; 16 g ai/ha, Preemergence): 90
- Plant response rating, Bermudagrass ([3]; 31 g ai/ha, Preemergence): 98
- Plant response rating, Bermudagrass ([3]; 62 g ai/ha, Preemergence): 100
- Plant response rating, Bermudagrass ([3]; Postemergence, 8 g ai/ha): 70
- Plant response rating, Bermudagrass ([3]; Postemergence, 16 g ai/ha): 80
- Plant response rating, Bermudagrass ([3]; Postemergence, 31 g ai/ha): 90
- Plant response rating, Bermudagrass ([3]; Postemergence, 62 g ai/ha): 95
- Plant response rating, Mallow ([4]; 16 g ai/ha, Preemergence): 0
- Plant response rating, Mallow ([4]; 31 g ai/ha, Preemergence): 0
- Plant response rating, Mallow ([4]; 62 g ai/ha, Preemergence): 0
- Plant response rating, Mallow ([4]; Postemergence, 8 g ai/ha): 0
- Plant response rating, Mallow ([4]; Postemergence, 16 g ai/ha): 0
- Plant response rating, Mallow ([4]; Postemergence, 31 g ai/ha): 0
- Plant response rating, Mallow ([4]; Postemergence, 62 g ai/ha): 0
- Plant response rating, Purslane ([5]; 16 g ai/ha, Preemergence): 0
- Plant response rating, Purslane ([5]; 31 g ai/ha, Preemergence): 0
- Plant response rating, Purslane ([5]; 62 g ai/ha, Preemergence): 0
- Plant response rating, Purslane ([5]; Postemergence, 8 g ai/ha): 0
- Plant response rating, Purslane ([5]; Postemergence, 16 g ai/ha): 0
- Plant response rating, Purslane ([5]; Postemergence, 31 g ai/ha): 0
- Plant response rating, Purslane ([5]; Postemergence, 62 g ai/ha): 0
- Plant response rating, Morningglory ([6]; 16 g ai/ha, Preemergence): 0
- Plant response rating, Morningglory ([6]; 31 g ai/ha, Preemergence): 0
- Plant response rating, Morningglory ([6]; 62 g ai/ha, Preemergence): 0
- Plant response rating, Morningglory ([6]; Postemergence, 8 g ai/ha): 0
- Plant response rating, Morningglory ([6]; Postemergence, 16 g ai/ha): 0
- Plant response rating, Morningglory ([6]; Postemergence, 31 g ai/ha): 0
- Plant response rating, Morningglory ([6]; Postemergence, 62 g ai/ha): 0
- Plant response rating, Quackgrass ([7]; 16 g ai/ha, Preemergence): 20
- Plant response rating, Quackgrass ([7]; 31 g ai/ha, Preemergence): 20
- Plant response rating, Quackgrass ([7]; 62 g ai/ha, Preemergence): 60
- Plant response rating, Quackgrass ([7]; Postemergence, 8 g ai/ha): 0
- Plant response rating, Quackgrass ([7]; Postemergence, 16 g ai/ha): 30
- Plant response rating, Quackgrass ([7]; Postemergence, 31 g ai/ha): 60
- Plant response rating, Quackgrass ([7]; Postemergence, 62 g ai/ha): 70
- Plant response rating, Sandbur, S. ([8]; 16 g ai/ha, Preemergence): 90
- Plant response rating, Sandbur, S. ([8]; 31 g ai/ha, Preemergence): 90
- Plant response rating, Sandbur, S. ([8]; 62 g ai/ha, Preemergence): 100
- Plant response rating, Sandbur, S. ([8]; Postemergence, 8 g ai/ha): 65
- Plant response rating, Sandbur, S. ([8]; Postemergence, 16 g ai/ha): 75
- Plant response rating, Sandbur, S. ([8]; Postemergence, 31 g ai/ha): 80
- Plant response rating, Sandbur, S. ([8]; Postemergence, 62 g ai/ha): 90

Compound: CCc1cc(-c2ccc(C(F)(F)F)cc2)nn1-c1c(O)cnn(C)c1=O [Compound 11, 4-[5-ethyl-3-[4-(trifluoromethyl)phenyl]-1H-pyrazol-1-yl]-5-hydroxy-2-methyl-3(2H)-pyridazinone]
- Plant response rating, Barley, Spring ([1]; Postemergence, 8 g ai/ha, scale 0 to 100, 0 no effect, 100 complete control): 80
- Plant response rating, Barley, Spring ([1]; Postemergence, 16 g ai/ha, scale 0 to 100, 0 no effect, 100 complete control): 95
- Plant response rating, Barley, Spring ([1]; Postemergence, 31 g ai/ha, scale 0 to 100, 0 no effect, 100 complete control): 95
- Plant response rating, Barley, Spring ([1]; Postemergence, 62 g ai/ha, scale 0 to 100, 0 no effect, 100 complete control): 98
- Plant response rating, Barley, Spring [1, 9]: 20
- Plant response rating, Barley, Spring [1, 10]: 30
- Plant response rating, Barley, Spring [1, 11]: 70
- Plant response rating, Barley, Spring [1, 12]: 100
- Plant response rating, Barnyardgrass ([2]; 4 g ai/ha, Postemergence, scale 0 to 100): 90
- Plant response rating, Barnyardgrass [2, 13]: 75
- Plant response rating, Barnyardgrass [2, 14]: 90
- Plant response rating, Barnyardgrass [2, 15]: 98
- Plant response rating, Barnyardgrass [2, 16]: 100
- Plant response rating, Barnyardgrass [2, 17]: 100
- Plant response rating, Barnyardgrass [2, 18]: 100
- Plant response rating, Barnyardgrass ([2]; Preemergence, 4 g ai/ha, scale 0 to 100, 0 no effect, 100 complete control): 0
- Plant response rating, Bermudagrass ([3]; 4 g ai/ha, Postemergence): 10
- Plant response rating, Bermudagrass ([3]; 8 g ai/ha, Preemergence): 25
- Plant response rating, Bermudagrass ([3]; 16 g ai/ha, Preemergence): 40
- Plant response rating, Bermudagrass ([3]; 31 g ai/ha, Preemergence): 100
- Plant response rating, Bermudagrass ([3]; Postemergence, 8 g ai/ha): 35
- Plant response rating, Bermudagrass ([3]; Postemergence, 16 g ai/ha): 80
- Plant response rating, Bermudagrass ([3]; Postemergence, 31 g ai/ha): 95
- Plant response rating, Bermudagrass ([3]; Preemergence, 4 g ai/ha): 15
- Plant response rating, Mallow ([4]; 4 g ai/ha, Postemergence): 0
- Plant response rating, Mallow ([4]; Postemergence, 8 g ai/ha): 0
- Plant response rating, Mallow ([4]; Postemergence, 16 g ai/ha): 0
- Plant response rating, Mallow ([4]; Postemergence, 31 g ai/ha): 0
- Plant response rating, Purslane ([5]; 4 g ai/ha, Postemergence): 0
- Plant response rating, Purslane ([5]; 16 g ai/ha, Preemergence): 0
- Plant response rating, Purslane ([5]; 31 g ai/ha, Preemergence): 0
- Plant response rating, Purslane ([5]; Postemergence, 8 g ai/ha): 0
- Plant response rating, Purslane ([5]; Postemergence, 16 g ai/ha): 0
- Plant response rating, Purslane ([5]; Postemergence, 31 g ai/ha): 0
- Plant response rating, Purslane ([5]; Preemergence, 4 g ai/ha): 0
- Plant response rating, Morningglory ([6]; 4 g ai/ha, Postemergence): 0
- Plant response rating, Morningglory ([6]; 16 g ai/ha, Preemergence): 0
- Plant response rating, Morningglory ([6]; 31 g ai/ha, Preemergence): 0
- Plant response rating, Morningglory ([6]; Postemergence, 8 g ai/ha): 0
- Plant response rating, Morningglory ([6]; Postemergence, 16 g ai/ha): 0
- Plant response rating, Morningglory ([6]; Postemergence, 31 g ai/ha): 0
- Plant response rating, Morningglory ([6]; Preemergence, 4 g ai/ha): 0
- Plant response rating, Quackgrass ([7]; 4 g ai/ha, Postemergence): 40
- Plant response rating, Quackgrass ([7]; 16 g ai/ha, Preemergence): 60
- Plant response rating, Quackgrass ([7]; 31 g ai/ha, Preemergence): 75
- Plant response rating, Quackgrass ([7]; Postemergence, 8 g ai/ha): 65
- Plant response rating, Quackgrass ([7]; Postemergence, 16 g ai/ha): 90
- Plant response rating, Quackgrass ([7]; Postemergence, 31 g ai/ha): 95
- Plant response rating, Quackgrass ([7]; Preemergence, 4 g ai/ha): 0
- Plant response rating, Sandbur, S. ([8]; 4 g ai/ha, Postemergence): 90
- Plant response rating, Sandbur, S. ([8]; 16 g ai/ha, Preemergence): 90
- Plant response rating, Sandbur, S. ([8]; 31 g ai/ha, Preemergence): 95
- Plant response rating, Sandbur, S. ([8]; Postemergence, 8 g ai/ha): 95
- Plant response rating, Sandbur, S. ([8]; Postemergence, 16 g ai/ha): 100
- Plant response rating, Sandbur, S. ([8]; Postemergence, 31 g ai/ha): 100
- Plant response rating, Sandbur, S. ([8]; Preemergence, 4 g ai/ha): 0
